Laboratory results published in US20160015064A1, “COMPOUNDS, COMPOSITIONS, AND METHODS FOR MODULATING SWEET TASTE” (CHROMOCELL CORPORATION, priority 2013, published 2016).

System: sweetness enhancement effect and off-taste in lemon-lime beverage
Test: Sensory assessment / informal tasting of solubilized Compound 3 beverages
Type: in vivo
Conditions: sucrose co-melt
Description: For example, Compound 3 and polysorbate 80 were accurately weighed into screw-capped glass vials according to Table 9 and heated at 70-90° C. and vortex mixed to facilitate the solubilization. Q-[…]® was added to the 41.5 brix lemon-lime flavored beverage syrup. The polysorbate 80 mixtures were blended into 41.5 brix lemon-lime flavored beverage syrup with Q-[…]® 200 and vortex mixed at 3000 rpm for 75 seconds. The resulting syrups were stored overnight at room temperature. The syrup was then diluted with 5× water to achieve the final 7.7 brix lemon-lime beverage. […] Solution PQ2 was able to maintain clear solution for 1 month.
Because Q-[…]® was able to maintain the stability of the sweet enhancing compounds, it was evaluated in combination with additional solvents. […] In another example, Compound 3, Q-[…]®, and either 1,2-propylene glycol or ethanol 200 proof were accurately weighed into screw-capped glass vials according to Table 10 and heated and vortex mixed to facilitate the solubilization. The resulting solution mixtures were blended into 41.5 brix lemon-lime flavored beverage syrup and vortexed at 3000 rpm for 75 seconds. The resulting syrups were stored overnight at refrigerated temperature and diluted with 5× water to achieve the final 7.7 brix lemon-lime beverage. […]
The ability of sugar to co-melt with compounds of the invention was also evaluated. […]

COc1ccc(C2CC(=O)c3c(O)cccc3O2)cc1O (single isomer, unassigned) [Compound 3, 5-hydroxy-2-(3-hydroxy-4-methoxyphenyl)chroman-4-one]
Sweetness enhancement effect in final beverage (sensory assessment) (7.7 brix lemon-lime beverage): maintained its sweetness enhancement effect
Off-taste (informal tasting assay) (lemon-lime beverage): perceptible off-taste
